Measured values: PMC6287599, “2,6-Bis(2-Benzimidazolyl)Pyridine (BBP) Is a Potent and Selective Inhibitor of Small Conductance Calcium-Activated Potassium (SK) Channels” (Frontiers in Pharmacology, 2018)

Tested on: all SK channel subtypes
Test: Manual patch clamp, summary over all SK channel subtypes
Format: cell-based, human
Conditions: BBP 1 μM
Experimental: HEK293 cells were transiently co-transfected with the plasmid of interest (hBK, hSK1, hSK2, hSK3 WT, rSK3 H491N, or hIK) and eGFP using standard Lipofectamine™ 2000 (Thermo Fisher Scientific, Waltham, Massachussets, USA) transfection protocols. After transfection, cells were incubated overnight before the experiments.
Manual patch clamp experiments were performed at room temperature in the whole cell configuration with a HEKA EPC9 amplifier and the Patchmaster software (HEKA Elektronik, Ludwigshafen, Germany). All currents were elicited every 2 s using an incremental 200 ms voltage-ramp protocol starting at −80 mV and finishing at +80 mV from a holding potential of 0 mV. […] Currents were measured using the same solutions as the ones used for automated patch clamp, with symmetrical potassium concentrations and a free intracellular calcium concentration of 400 nM. […]
To assess the effect of BBP on other calcium-activated potassium channels (hBK, hSK3 WT, rSK3 H491N, and hIK), each individual current was first normalized to its cell size using membrane's capacitance (pA/pF) before statistical analysis. […] Statistical significance between saline and the effect of both BBP and the corresponding reference compound was determined for each channel using one-way ANOVA analysis. […]

Q: Which “Effect on all SK currents (in words)” value does the source give for `c1cc(-c2nc3ccccc3[nH]2)nc(-c2nc3ccccc3[nH]2)c1` [BBP, 2,6-Bis(2-benzimidazolyl)pyridine] here?
A: totally inhibited

Q: What about the “Voltage dependence of inhibition (−80 vs +80 mV)” value of the same compound?
A: no significant differences
